Patent US10444229B2, “Method of measuring insulin resistance with fatty acid combustion, and composition used herein” (OTSUKA PHARMACEUTICAL CO., LTD., priority 2013, dated 2019)
Like-named read-outs stand apart in the source and are kept apart here.

Experiments:
[1] = 13C breath test after intravenous administration of 13C-labeled compounds to ZDF rats (Lean and Fatty), fasting or feeding (Experimental Example 2); settings: for Δ13C(‰) in expired air, fasting state versus feeding state / transition of Δ13C(‰), Lean rats versus Fatty rats: intravenous; for Δ13C(‰) of Fatty versus Lean rats: rat, in vivo, iv; for transition of Δ13C(‰), Lean rats versus Fatty rats: ZDF rats, fasting and feeding groups
From the text: ZDF Fatty rat is an insulin-resistant test subject animal that has a low sensitivity to insulin, and develops a pathological condition similar to human adult type II diabetes and diabetes complication. In contrast, ZDF Lean rat is a healthy subject animal having normal blood glucose level and normal sensitivity to insulin. Lean and Fatty rats (A) were divided into a fasting group in which the rats were fasted from the previous day, and a feeding group. […] For (a) to (e), expired air was collected from rats (A), and for (f), expired air was collected and rats (B) (each group, n=3).
Expired air was obtained at time points (t minutes) from a time point before the administration of solutions (a) to (f) (0 minutes) to a time point 60 minutes after the administration, and Δ^13C(‰) was determined from ^13CO2 concentration in the expired air using an expired air analysis mass spectrometer (ABCA: product of SerCon).

[2] = for Δ13C(‰) in expired air, fasting state versus feeding state: intravenous 2 ml/kg
Description: OLETF rats are type II diabetes test subject animal with obesity or/and fatty liver, and LETO rats serve as a control thereof (healthy subjects).
These rats were divided into a fasting group in which the rats were fasted from the previous day, and a feeding group. 1-^13C-sodium palmitate solution prepared in Experimental Example 2 was intravenously administered (2 ml/kg) to each group (each group, n=3). Expired air was collected at time points (t minutes) from a time point before the 1-^13C-sodium palmitate solution administration (0 minutes) to a time point 60 minutes after the administration, and Δ^13C(‰) was determined from the ^13CO2 concentration in the expired air using an expired air analysis mass spectrometer (ABCA: product of SerCon).

[3] = ZDF Fatty vs Lean and OLETF vs LETO, 11 weeks
Description: These rats were divided into a fasting group in which the rats were fasted from the previous day, and a feeding group. 1-^13C-sodium palmitate solution prepared in Experimental Example 2 was intravenously administered (2 ml/kg) to each group (each group, n=3).

[4] = fasted Zucker rats
Description: 1-^13C-sodium palmitate was dissolved in hydrous ethanol at about 80° C. at a concentration of 500 μmol/mL.
Rats (male, Zucker rat) were used as experimental animals. The rats that were fasted from the previous day of the test were divided into two groups: oral administration group and intravenous administration group (each group, n=3), and the 1-^13C-sodium palmitate solution (20 μmol/2 mL) prepared in (1) was orally and intravenously administered at a dosage of 2 mL/kg. Expired air was collected at each time point (t minutes) from a time point before administration (0 minutes) to a time point 180 minutes after the administration, and Δ^13C(‰) was determined from the concentration of ^13CO2 in the expired air using an expired air analysis mass spectrometer (ABCA: product of SerCon).
The value of Δ^13C(‰) was determined by measuring a concentration ratio ^13CO2/^12CO2 in the expired air (δ^13C value) at each time point (t minutes) from a time point before the 1-^13C-sodium palmitate administration (0 minutes) to a time point after the administration, and calculating the Δ^13C(‰) value from the difference between the δ^13C value (δ^13Ct) at each point (t) and the δ^13C value before the administration (δ^13Co) (δ^13Ct-δ^13Co) (the same calculation is used in the Experimental Examples below).

[5] = ZDF Fatty rats (insulin-resistant)
[6] = ZDF Lean rats (healthy subjects)

| SMILES | Δ13C(‰) in expired air, fasting state versus feeding state [1, 5] | Δ13C(‰) in expired air, fasting state versus feeding state [1, 6] | Δ13C(‰) of Fatty versus Lean rats [1] | transition of Δ13C(‰), Lean rats versus Fatty rats [1] | other results |
| --- | --- | --- | --- | --- | --- |
| CCCCCCCC/C=C\CCCCCCC[13C](=O)O [1-^13C-oleic acid] | higher in the fasting (hunger) state than in the feeding state | higher in the fasting (hunger) state than in the feeding state | higher than that of the healthy subjects (Lean) | – | – |
| CCCCCCCCCCC[13C](=O)O [1-^13C-lauric acid] | – | – | higher than that of the healthy subjects (Lean) | – | – |
| CCCCCCC[13C](=O)[O-].[Na+] [1-^13C-sodium octanoate, reference compound] | – | – | – | little difference between the results of Lean rats and the results of Fatty rats | – |
| CCCCCCCCCCCCCCC[13C](=O)[O-].[Na+] [1-^13C-sodium palmitate] | higher in the fasting (hunger) state than in the feeding state | higher in the fasting (hunger) state than in the feeding state | higher than that of the healthy subjects (Lean) | – | Δ13C(‰) in expired air, fasting state versus feeding state ([2]; LETO rats (healthy subjects)): higher in the fasting (hunger) state than in the feeding state; Δ13C(‰) in expired air, fasting state versus feeding state ([2]; OLETF rats (insulin-resistant, liver disease)): higher in the fasting (hunger) state than in the feeding state; Δ13C(‰) of OLETF versus LETO rats ([2]; fasting group and feeding group, period until 15 minutes after intravenous administration): higher than that of the healthy subjects (LETO); transition of Δ13C(‰), insulin-nonresistant hyperinsulinemia test subject versus healthy subject ([3]; fasting state): little difference; Δ13C(‰) value, insulin-nonresistant hyperinsulinemia test subject versus healthy subject ([3]; feeding state): significantly lower than that of the healthy subject; excretion in expired air [4]: excreted in expired air as ^13CO2; time of Δ13C(‰) peak in expired air after administration ([4]; intravenous administration, 2 mL/kg of 20 μmol/2 mL): ≤ 10 min; transition of Δ13C(‰) in expired air ([4]; oral administration, 2 mL/kg of 20 μmol/2 mL, 0-180 minutes): little variation among respective measurement times |
| C[13C](=O)[O-].[Na+] [1-^13C-sodium acetate, reference compound] | – | – | – | little difference between the results of Lean rats and the results of Fatty rats | – |
